Legend:
[1] = biological target: T1, TcPRAC (Trypanosoma cruzi, UniProt Q4DA80); assay: L-proline racemization assay, formed D-proline determined by DAAOx test; format: biochemical; conditions: ligand 10 µM; 10 mM L-proline; 22.4 mg/ml TcPRAC; 5.0mM without ligand
T1 construct: implied only by nickel IMAC purification; made in house; host or cells: E. coli BL21 (DE3)
Protocol: Briefly, classical assays of Proline racemization induced by TcPRAC were performed in tubes in a final volume of 1.5 ml and optical rotations measured in a polarimeter 241MC (Perkin Elmer). Parallel assays of Proline racemization were transposed into microplates in a final volume of 100 µl, as follows: serial dilutions of L- Proline ranging from 40 mM to 2.5 mM were prepared in 0.2 M sodium acetate pH 6.0 containing 0.25 mM rTcPRAC and loaded into microplate wells in the presence or in the absence of 0 - 20 µM pyrrole-2 carboxylic acid (PYC) or of similar dilutions of unknown potential inhibitors. Specific control wells were included omitting the TcPRAC and/or the PYC.
Microplates were incubated for 30 minutes at 37° C. Enzyme activity was then inactivated by heating the plate for 15 seconds in a microwave oven at 900 watts after shifting the pH of wells to 8.3 by addition of 6.8 µl of 0.235 M sodium Pyrophosphate. 50 µl of each well were used to test the presence of D-Proline using the DAAOx (D-amino acid oxidase) test described below. L- amino acids may react at very low rate with DAAOx. For instance, DAAOx reacts with L-Proline 300 times slower than D-Proline. Consequently, when assessing amino acid racemization products, standards should consist of serial dilution of equimolar mixtures of specific D- and L-amino acids ranging from 0 to 20 mM (10 mM final) to take into account any interference of possible reactivity with DAAOx of the L- form of amino acids present in the samples.
Solution A consisting of 0.2 M sodium acetate/0.016 M sodium pyrophosphate (Pop) buffer, pH 8.3 was used to prepare the enzyme stock solutions conserved in 50% glycerol, namely: 50 U/ml D-amino acid oxidase from pig kidney (DAAOx, Sigma) and 5000 U/ml Horse Raddish Peroxydase (HRP, Sigma). Stock solutions of L- proline (1M), D- proline (1M) and Pyrrole-2-carboxylic acid (10 mM) (PYC, Sigma) are also prepared in solution A. 10^-1 M FAD (Sigma) stock was prepared in water. Solution B consists in adding to solution A the following reagents at a final concentration in the assay of 1 U/ml for DAAOx, 0.5 mg/ml orthophenylenediamine (OPD, Sigma), 37.5 U/ml HRP and FAD (1.5x10^-5 M FAD). The test is run in 96 wells micro plates (Nunc, Denmark). […] OD 490nm - 650nm is obtained with a microtiter plate reader (Molecular Devices), and compared to those obtained with blank control wells.
The values presented in Table 2A correspond to racemization reactions performed in the absence or in the presence of 10 µM concentration of the different ligands. […] Briefly, 22.4 mg/ml of active TcPRAC was used in the racemization assays of 10 mM L-proline substrate and the concentration of formed D-proline was determined by the DAAOx test, as described in the Material and Methods. […]

[2] = test system: Vero cells; assay: Toxicity for Vero cells, Trypan Blue exclusion; format: cell-based, green monkey; conditions: 10 µM, 48h
Protocol: Finally both the compounds OxoPA and Br-OxoPA were tested at a concentration of 10 µM for toxicity of Vero cells for 48h. Both compounds are not toxic as evaluated by Trypan Blue exclusion (not shown).

[3] = test system: T.cruzi CL Brener (clone F11-F5); assay: Intracellular parasite fate: inhibitor added after 17h infection, 48h, Giemsa scoring; format: cell-based; conditions: 48h after infection; for Mean number of parasites/ cell: 3,9 at 0; for % Infected cells: 39,3 at 0; for Number of parasites/100 cells: 153,15 at 0
Protocol: Vero cells (from green monkey kidney) were seeded at a density of 15x10^6 cells per 25cm^2 culture flasks or at 5 x10^4 cells/well into LabTek slides. The cultures were maintained in RPMI 1640 medium supplemented with 5% fetal bovine serum and kept at 37°C in an atmosphere of 5% CO2. Cell culture-derived trypomastigotes from T.cruzi CL Brener (clone F11-F5) were isolated from the supernatant of Vero cells, which had been previously infected with bloodstream trypomastigotes. Vero cell cultures were infected for 17h at 37°C with cultured trypomastigotes at a 10:1 parasite/cell ratio in the presence or in the absence of increasing doses of freshly made dilutions (3-30 µM) of (E)-4-oxopent-2-enoic acid (OxoPA) and its derivative (E)-5-bromo-4-oxopent-2-enoic acid (Br-OxoPA), previously dissolved in dimethyl sulfoxide (DMSO). For comparison, cultures were seeded with or without 10-1000 µM specific proline racemase inhibitor pyrrole-2-carboxylic acid (PYC) also diluted in DMSO. To verify if proline racemase inhibitors could also exert an effect on the parasite intracellular cycle after 17 hours of parasite-host cell interaction, all the wells were then rinsed three times to eliminate all extracellular parasites and new medium was added to the cultures that were incubated for up to 48 hours with fresh dilutions of the inhibitor compounds. After the different treatments, cultures were washed with PBS, fixed and stained with Giemsa. The numbers of infected host cells and of parasites per infected cell were then scored in at least 400 host cells in independent experiments, run in duplicate. Results are expressed as the percentage of infected cells, the mean number of parasites per infected cell or by the endocytic index (EI) which represents the percentage of infected cells multiplied by the mean number of parasites per infected cell.
Additional studies were performed to verify whether TcPRAC inhibition by the new compounds would influence the intracellular fate of the parasite. For this purpose, after infection for 17 hours, the host cells were washed and different ligand concentrations (3µM, 10 µM, 30 µM) were added to the medium and the infection was followed for up to 48 hours. As can be observed in Tables 4A, B and C, after 48 hours of culture treatments, there was a dose-dependent decrease in the number of parasites/ 100 cells, as well as in the percentage of infected cells or yet in the mean number of parasites/cell. […] Table 4A : Number of parasites/100 cells
Vero cells (from green monkey kidney) were seeded at a density of 15x10^6 cells per 25cm2 culture flasks or at 5x10^4 cells/well into LabTek slides. The cultures were maintained in RPMI 1640 medium supplemented with 5% fetal bovine serum and kept at 37°C in an atmosphere of 5% CO2. Cell culture-derived trypomastigotes from T.cruzi CL Brener (clone F11-F5) were isolated from the supernatant of Vero cells, which had been previously infected with bloodstream trypomastigotes. LabTek wells were infected for 17h at 37°C with cultured trypomastigotes at a 10:1 parasite/cell ratio. All the wells were then washed to eliminate all extracellular parasites and new medium was added to the cultures containing or not increasing concentrations of freshly made dilutions of 3-30 µM of OxoPA or Br-OxoPA molecules. Cultures were washed after 48h, fixed and stained with Giemsa.

T1 sequence (Q4DA80 32-423): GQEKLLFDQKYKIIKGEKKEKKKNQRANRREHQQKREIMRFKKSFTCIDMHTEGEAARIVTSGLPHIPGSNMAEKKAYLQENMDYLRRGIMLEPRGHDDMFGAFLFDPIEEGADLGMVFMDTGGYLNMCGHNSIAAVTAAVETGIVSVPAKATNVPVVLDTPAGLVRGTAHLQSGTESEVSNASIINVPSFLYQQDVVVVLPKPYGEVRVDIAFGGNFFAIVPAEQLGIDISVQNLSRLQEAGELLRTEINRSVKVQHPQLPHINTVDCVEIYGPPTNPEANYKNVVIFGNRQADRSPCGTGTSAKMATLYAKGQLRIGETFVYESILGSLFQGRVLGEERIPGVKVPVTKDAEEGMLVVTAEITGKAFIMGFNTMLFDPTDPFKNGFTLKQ

SMILES: CC(=O)/C=C/C(=O)O [OxoPA, (E)-4-oxopent-2-enoic acid]
- Formed D-Proline [1]: < 0,3 mM
- toxicity of Vero cells [2]: not toxic
- Mean number of parasites/ cell ([3]; 3 µM): 2,9
- % Infected cells ([3]; 3 µM): 41,3%
- Number of parasites/100 cells ([3]; 3 µM): 121,3
- Mean number of parasites/ cell ([3]; 10 µM): 3,0
- % Infected cells ([3]; 10 µM): 41,3%
- Number of parasites/100 cells ([3]; 10 µM): 129,4
- Mean number of parasites/ cell ([3]; 30 µM): 2,8
- % Infected cells ([3]; 30 µM): 20,0%
- Number of parasites/100 cells ([3]; 30 µM): 56,1

SMILES: O=C(O)/C=C/C(=O)CBr [Br-OxoPA, (E)-5-bromo-4-oxopent-2-enoic acid]
- Formed D-Proline [1]: < 0,3 mM
- toxicity of Vero cells [2]: not toxic
- Mean number of parasites/ cell ([3]; 3 µM): 3,2
- % Infected cells ([3]; 3 µM): 55,3%
- Number of parasites/100 cells ([3]; 3 µM): 176,5
- Mean number of parasites/ cell ([3]; 10 µM): 3,1
- % Infected cells ([3]; 10 µM): 49,8%
- Number of parasites/100 cells ([3]; 10 µM): 155,8
- Mean number of parasites/ cell ([3]; 30 µM): 2,3
- % Infected cells ([3]; 30 µM): 31,0%
- Number of parasites/100 cells ([3]; 30 µM): 69,4
